The text below walks through data of US7691564B2, “Heterotrimeric G-protein” (The Johns Hopkins University, priority 2000, dated 2010).

pEC50, pKd: −log10 of the molar value. Read-outs that look alike come from different tables or passages of the source. Bounds are passed on as bounds.

In experiment [1] the test system is G-protein heterotrimer (Gα2-CFP:Gβ-YFP) linked to cAMP chemoattractant receptors. Put plainly: FRET loss in living α2-CFP:β-YFP cells (fluorimeter). The conditions noted are these: for pEC50: read-out: EC50 for decrease of the FRET signal. In kind it is cell-based, D. discoideum. The procedure:
(§1) FIGS. 2A to 2E. Fluorescence spectra of cell lines. (FIG. 2A) Developed cells were excited in a Spex Fluoromax-2 fluorimeter at 440 nm and emission was collected between 460 nm and 600 nm and processed as described (14). Gα2-CFP/g α2^− cells (“α2-CFP”), α2-CFP: β-YFP cells (“α2-CFP: -YFP”), and mixture of equal number of Ga-2-CFP/gα2^− and G β-YFP/g βcells (“mixed cells”). […] Cells were scanned at selected time points following addition of the stimulus. […] Mean intensities were calculated in IPLab Spectrum by manually circumscribing the membrane of multiple cells. […] Arrows indicate the frame at which the stimulus was added. (FIG. 2E) Difference images of consecutive frames of one captured at 3 second intervals were calculated in IPLab Spectrum. […] Calibration bar is 10 μm.
FIGS. 3A to 3B. […] Data was processed as described (34). […] Data from two independent experiments were averaged for each curve.
We excited living, differentiated cells at 440 nm and recorded the emission spectrum between 460 and 600 nm.
• 1. A. G. Gilman, Annu Rev Biochem 56, 615-49 (1987). • 2. H. E. Hamm, J Biol Chem 273, 669-72 (1998). • 3. C. A. Parent, B. J. Blacklock, W. M. Froehlich, D. B. Murphy, P. N. Devreotes, Cell 95, 81-91 (1998). • 4. Z. Xiao, N. Zhang, D. B. Murphy, P. N. Devreotes, J Cell Biol 139, 365-74 (1997). • 5. G. Servant et al., Science 287, 1037-40 (2000). • 6. T. Jin, N. Zhang, Y. Long, C. A. Parent, P. N. Devreotes, Science 287, 1034-6 (2000). • 7. R. Heim, R. Y. Tsien, Curr Biol 6, 178-82 (1996). • 8. The coding region of the β-YFP fusion protein was cloned into the CV5 vector. CV5 was derived from p88 by addition of an actin 15/expression cassette from pMC34 (3). • 9. D. G. Lambright et al., Nature 379, 311-9 (1996). • 10. M. A. Wall et al., Cell 83, 1047-58 (1995) • 11. A. Kumagai et al., Cell 57, 265-75 (1989). • 12. The gene encoding CFP was inserted into a Spe1 site after residue 90, in the loop between the αA and the αB helices, of the Gα2 cDNA. The SpeI site also added a threonine and serine residue at the N and C terminal loundaries of the insertion. This fusion was cloned into the CV5 vector. The gα2^− cells were transformed, and individual G418 resistant clones were selected. […] Equal amounts of plasmids carrying the Gα2-CFP and Gβ-YFP fusions were mixed, transformed into gα2 cells, and individual G418 resistant clones were selected.

The target of experiment [2] is T1, cAR1 (Dictyostelium discoideum, UniProt P13773).
T1 sequence (P13773 1-392): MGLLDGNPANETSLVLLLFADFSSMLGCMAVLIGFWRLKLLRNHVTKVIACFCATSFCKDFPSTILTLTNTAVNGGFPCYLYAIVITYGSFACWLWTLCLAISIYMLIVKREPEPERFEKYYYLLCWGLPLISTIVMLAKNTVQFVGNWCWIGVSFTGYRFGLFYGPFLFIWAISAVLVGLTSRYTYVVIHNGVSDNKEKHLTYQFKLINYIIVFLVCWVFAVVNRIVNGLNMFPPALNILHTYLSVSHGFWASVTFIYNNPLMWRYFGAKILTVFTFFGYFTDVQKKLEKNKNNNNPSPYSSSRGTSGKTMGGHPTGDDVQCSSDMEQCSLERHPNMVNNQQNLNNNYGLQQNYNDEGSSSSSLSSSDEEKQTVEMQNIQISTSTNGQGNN
The conditions noted are these: cited from earlier work; for pKd: literature ref 16, read-out: reported binding affinity (average KD).

The target in experiment [3] is T2, G-protein heterotrimer (Gα2-CFP:Gβ-YFP) (Dictyostelium discoideum, UniProt P16051, INS90[…]).
T2 construct: expressed in transfected cells; host or cells: D. discoideum gα2-null cells (α-CFP:β-YFP cells), CV5 vector, G418-selected clones; living cells in A1 and A3, membranes prepared from them in A4
As to the kind of experiment: FRET signal in membranes prepared from α-CFP:β-YFP cells. In kind it is biochemical, D. discoideum.

Experiment [4] relates to PH-domain recruitment to membranes. Put plainly: PH domain (PHCRAC-GFP) binding to membranes in cell lysates. In kind it is biochemical, D. discoideum. Here is the method: FIGS. 4A to 4C. Continuous activation of the G-protein cycle. […] (FIG. 4B) Receptor regulation of PH domain translocation. […] After 2 minutes membranes were collected and binding of the PHCRAC-GFP was assessed by immunoblot analysis using antibodies to GFP (22). (FIG. 4C) Assessment of cAR1 phosphorylation.

Experiment [5] has as its system G-protein heterotrimer (Gα2-CFP:Gβ-YFP) in α-CFP:β-YFP cells. Conditions: saturating dose, within 6 seconds. The procedure:
as §1

Setting [6] is: α2-CFP:β-YFP cells, caffeine treated, 10 mM dithiothreitol.

As to `Nc1ncnc2c1ncn2C1CC2OP(=O)(O)OCC2O1` (stereo not shown) [2′-dcAMP], the pEC50 in experiment [1] (setting [6]) was ~7.70. For the same compound, the pKd in experiment [2] is ~6.00.
Consider `Nc1ncnc2c1nc(Br)n2[C@@H]1O[C@@H]2COP(=O)(O)O[C@H]2[C@H]1O` [8-Br-cAMP], for which the pEC50 in experiment [1] (setting [6]) is ~5.70. Also, the pKd in experiment [2] was ~4.49.
On to `Nc1ncnc2c1ncn2[C@@H]1O[C@H](COP(=O)(O)O)[C@@H](O)[C@H]1O` [5′-AMP], for which the “effect on the FRET signal” value in experiment [1] (1 mM) is recorded as “no effect on the FRET signal”. Also, the “binding to cAR1” value in experiment [2] is reported as “does not bind to cAR1”.
As to `Nc1nc2c(ncn2[C@@H]2O[C@H](COP(=O)(O)OP(=O)(O)OP(O)(O)=S)[C@@H](O)[C@H]2O)c(=O)[nH]1` [GTPγS], the “FRET signal of membranes” value in experiment [3] (GTPγS alone (data not shown)) was “not with GTPγS alone”; in experiment [3] (Mg++ plus GTPγS (data not shown)) it was “disappeared”. Further, the “binding of PH-domains to membranes” value in experiment [4] (lysates from adapted cells (cAMP 15 minutes)) was “this response was lost”; in experiment [4] (lysates from naive cells) it was “stimulated the binding of PH-domains to membranes”.
On to `Nc1ncnc2c1ncn2C1OC2COP(=O)(O)OC2C1O` (stereo not shown) [cAMP, cyclic adenosine 3′, 5′ phosphate], for which, in experiment [1], the “FRET signal remaining, % of the initial value” was ~20%; the “change in FRET after adjusting to 10 μM” value is given as “further decrease in FRET”; the “decrease of the FRET signal” value is “approximately 70%”; the duration of activation entry is recorded as “Activation did not subside”. In experiment [1], the “response as % of the maximum” value was determined as 90%, the “time for the FRET signal to return to its maximal level” value is reported as “within two minutes”, the “time to maximal response after stimulation” value was ≤ 10 s and the pEC50 was ~8.00. In addition, the “decrease of the membrane FRET signal” value in experiment [5] was “about 15%”.
